tested on: HCT116 colorectal cancer cells; experiment: Cisplatin sensitization assay (96 h cell viability MTS); type: cell-based; conditions: 96 h MTS, compound plus Cisplatin;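 note: compound concentration needed to lower the Cisplatin-alone IC50 by a set fold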
Outline: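 Full-matrix combination: compound × cisplatin, 2-fold dilutions from 10 μM top final, co-added; 96 h, 37° C, 5% CO2; MTS read-out after 1 h.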

Compound | Cisplatin Sensitization Assay
Nc1nn2cc(Cl)cnc2c1C(=O)Nc1cnccc1O[C@H]1CCOC1 [I-O-58, (S)-2-amino-6-chloro-N-(4-((tetrahydrofuran-3-yl)oxy)pyridin-3-yl)pyrazolo[1,5-a]pyrimidine-3-carboxamide] | +++ (Compounds with a Cisplatin sensitization value of <0.02 μM are marked with “+++.”)
Nc1nn2cc(F)cnc2c1C(=O)Nc1cncc(F)c1N1CCN2C(=O)CC[C@@H]2C1 [I-N-186, (R)-2-amino-6-fluoro-N-(5-fluoro-4-(6-oxohexahydropyrrolo[1,2-a]pyrazin-2(1H)-yl)pyridin-3-yl)pyrazolo[1,5-a]pyrimidine-3-carboxamide] | +++ (Compounds with a Cisplatin sensitization value of <0.02 μM are marked with “+++.”)
N#CCc1cnc2c(C(=O)Nc3cnccc3OC3CCC3)c(N)nn2c1 [I-O-36, 2-amino-6-(cyanomethyl)-N-(4-cyclobutoxypyridin-3-yl)pyrazolo[1,5-a]pyrimidine-3-carboxamide] | +++ (Compounds with a Cisplatin sensitization value of <0.02 μM are marked with “+++.”)
N#CCc1cnc2c(C(=O)Nc3cnccc3N3CCCCCC3)c(N)nn2c1 [I-N-79, 2-amino-N-(4-(azepan-1-yl)pyridin-3-yl)-6-(cyanomethyl)pyrazolo[1,5-a]pyrimidine-3-carboxamide] | ++ (Compounds with a Cisplatin sensitization value >0.02 μM but <0.2 μM are marked with “++.”)
CNC1CCN(c2ccncc2NC(=O)c2c(N)nn3cc(Cl)cnc23)CC1 [I-N-87, 2-amino-6-chloro-N-(4-(4-(methylamino)piperidin-1-yl)pyridin-3-yl)pyrazolo[1,5-a]pyrimidine-3-carboxamide] | ++ (Compounds with a Cisplatin sensitization value >0.02 μM but <0.2 μM are marked with “++.”)
Nc1nn2cc(F)cnc2c1C(=O)Nc1cncc(F)c1N1CCN(C2CCOC2)CC1 (centres unmarked) [I-N-122, 2-amino-6-fluoro-N-(5-fluoro-4-(4-(tetrahydrofuran-3-yl)piperazin-1-yl)pyridin-3-yl)pyrazolo[1,5-a]pyrimidine-3-carboxamide] | ++ (Compounds with a Cisplatin sensitization value >0.02 μM but <0.2 μM are marked with “++.”)
Nc1nn2cc(F)cnc2c1C(=O)Nc1cnccc1N1CCC(C(=O)N2CC3(COC3)C2)CC1 [I-G-88, N-(4-(4-(2-oxa-6-azaspiro[3.3]heptane-6-carbonyl)piperidin-1-yl)pyridin-3-yl)-2-amino-6-fluoropyrazolo[1,5-a]pyrimidine-3-carboxamide] | +++ (Compounds with a Cisplatin sensitization value of <0.02 μM are marked with “+++.”)
CN1CCCCC1C(=O)N1CCN(c2c(F)cncc2NC(=O)c2c(N)nn3cc(F)cnc23)CC1 (centres unmarked) [I-N-173, 2-amino-6-fluoro-N-(5-fluoro-4-(4-(1-methylpiperidine-2-carbonyl)piperazin-1-yl)pyridin-3-yl)pyrazolo[1,5-a]pyrimidine-3-carboxamide] | +++ (Compounds with a Cisplatin sensitization value of <0.02 μM are marked with “+++.”)
CN1CCC[C@@H]1C(=O)N1CCN(c2c(F)cncc2NC(=O)c2c(N)nn3cc(F)cnc23)CC1 [I-N-181, (R)-2-amino-6-fluoro-N-(5-fluoro-4-(4-(1-methylpyrrolidine-2-carbonyl)piperazin-1-yl)pyridin-3-yl)pyrazolo[1,5-a]pyrimidine-3-carboxamide] | +++ (Compounds with a Cisplatin sensitization value of <0.02 μM are marked with “+++.”)
COCCS(=O)(=O)C1CCN(c2ccncc2NC(=O)c2c(N)nn3cc(F)cnc23)CC1 [I-N-208, 2-amino-6-fluoro-N-(4-(4-((2-methoxyethyl)sulfonyl)piperidin-1-yl)pyridin-3-yl)pyrazolo[1,5-a]pyrimidine-3-carboxamide] | +++ (Compounds with a Cisplatin sensitization value of <0.02 μM are marked with “+++.”)
Nc1nn2cc(F)cnc2c1C(=O)Nc1cncc(F)c1N1CCC(C(=O)N2CCN(C3COC3)CC2)CC1 [I-G-32, 2-amino-6-fluoro-N-[5-fluoro-4-[4-[4-(oxetan-3-yl)piperazine-1-carbonyl]-1-piperidyl]-3-pyridyl]pyrazolo[1,5-a]pyrimidine-3-carboxamide] | +++ (Compounds with a Cisplatin sensitization value of <0.02 μM are marked with “+++.”)
Cc1ccnn1-c1ccncc1NC(=O)c1c(N)nn2cc(F)cnc12 [I-N-223, 2-amino-6-fluoro-N-(4-(5-methyl-1H-pyrazol-1-yl)pyridin-3-yl)pyrazolo[1,5-a]pyrimidine-3-carboxamide] | ++ (Compounds with a Cisplatin sensitization value >0.02 μM but <0.2 μM are marked with “++.”)
Nc1nn2cc(F)cnc2c1C(=O)Nc1cnccc1N1CCC(S(=O)(=O)C2COC2)CC1 [I-N-200, 2-amino-6-fluoro-N-(4-(4-(oxetan-3-ylsulfonyl)piperidin-1-yl)pyridin-3-yl)pyrazolo[1,5-a]pyrimidine-3-carboxamide] | +++ (Compounds with a Cisplatin sensitization value of <0.02 μM are marked with “+++.”)
Nc1nn2cc(F)cnc2c1C(=O)Nc1cncc(C2CC2)c1N1CCN(C2COC2)CC1 [I-N-32, 2-amino-N-(5-cyclopropyl-4-(4-(oxetan-3-yl)piperazin-1-yl)pyridin-3-yl)-6-fluoropyrazolo[1,5-a]pyrimidine-3-carboxamide] | ++ (Compounds with a Cisplatin sensitization value >0.02 μM but <0.2 μM are marked with “++.”)
Nc1nn2cc(F)cnc2c1C(=O)Nc1cncc(F)c1N1CCN(C(=O)C2CCOC2)CC1 (centres unmarked) [I-N-274, 2-amino-6-fluoro-N-(5-fluoro-4-(4-(tetrahydrofuran-3-carbonyl)piperazin-1-yl)pyridin-3-yl)pyrazolo[1,5-a]pyrimidine-3-carboxamide] | +++ (Compounds with a Cisplatin sensitization value of <0.02 μM are marked with “+++.”)
Nc1nn2cc(F)cnc2c1C(=O)Nc1cnccc1N1CCC(S(=O)(=O)N2CCN3CCC2CC3)CC1 [I-N-196, N-(4-(4-(1,4-diazabicyclo[3.2.2]nonan-4-ylsulfonyl)piperidin-1-yl)pyridin-3-yl)-2-amino-6-fluoropyrazolo[1,5-a]pyrimidine-3-carboxamide] | +++ (Compounds with a Cisplatin sensitization value of <0.02 μM are marked with “+++.”)
Nc1nn2cc(F)cnc2c1C(=O)Nc1cncc(F)c1N1CCN2CCOC[C@@H]2C1 [I-N-137, (S)-2-amino-6-fluoro-N-(5-fluoro-4-(hexahydropyrazino[2,1-c][1,4]oxazin-8(1H)-yl)pyridin-3-yl)pyrazolo[1,5-a]pyrimidine-3-carboxamide] | ++ (Compounds with a Cisplatin sensitization value >0.02 μM but <0.2 μM are marked with “++.”)
Nc1nn2cc(F)cnc2c1C(=O)Nc1cnccc1N1CCC(C(=O)N2CC3(CCO3)C2)CC1 [I-G-90, N-(4-(4-(1-oxa-6-azaspiro[3.3]heptane-6-carbonyl)piperidin-1-yl)pyridin-3-yl)-2-amino-6-fluoropyrazolo[1,5-a]pyrimidine-3-carboxamide] | +++ (Compounds with a Cisplatin sensitization value of <0.02 μM are marked with “+++.”)
COc1ccncc1NC(=O)c1c(N)nn2cc(CC#N)cnc12 [I-O-26, 2-amino-6-(cyanomethyl)-N-(4-methoxypyridin-3-yl)pyrazolo[1,5-a]pyrimidine-3-carboxamide] | ++ (Compounds with a Cisplatin sensitization value >0.02 μM but <0.2 μM are marked with “++.”)
CCOc1ccncc1NC(=O)c1c(N)nn2cc(CC#N)cnc12 [I-O-28, 2-amino-6-(cyanomethyl)-N-(4-ethoxypyridin-3-yl)pyrazolo[1,5-a]pyrimidine-3-carboxamide] | +++ (Compounds with a Cisplatin sensitization value of <0.02 μM are marked with “+++.”)
CN1CCN(C2CCN(c3ccncc3NC(=O)c3c(N)nn4cc(Cl)cnc34)CC2)CC1 [I-N-97, 2-amino-6-chloro-N-(4-(4-(4-methylpiperazin-1-yl)piperidin-1-yl)pyridin-3-yl)pyrazolo[1,5-a]pyrimidine-3-carboxamide] | +++ (Compounds with a Cisplatin sensitization value of <0.02 μM are marked with “+++.”)
CN1CCN(c2ccncc2NC(=O)c2c(N)nn3cc(F)cnc23)CC1 [I-N-3, 2-amino-6-fluoro-N-(4-(4-methylpiperazin-1-yl)pyridin-3-yl)pyrazolo[1,5-a]pyrimidine-3-carboxamide] | +++ (Compounds with a Cisplatin sensitization value of <0.02 μM are marked with “+++.”)
Nc1nn2cc(Cl)cnc2c1C(=O)Nc1cnccc1OC1CC2(CNC2)C1 [I-O-72, N-(4-(2-azaspiro[3.3]heptan-6-yloxy)pyridin-3-yl)-2-amino-6-chloropyrazolo[1,5-a]pyrimidine-3-carboxamide] | + (Compounds with a Cisplatin sensitization value >0.2 μM but <5 μM are marked with “+.”)
Nc1nn2cc(F)cnc2c1C(=O)Nc1cnccc1N1CCN(CC(F)(F)F)CC1 [I-N-20, 2-amino-6-fluoro-N-(4-(4-(2,2,2-trifluoroethyl)piperazin-1-yl)pyridin-3-yl)pyrazolo[1,5-a]pyrimidine-3-carboxamide] | +++ (Compounds with a Cisplatin sensitization value of <0.02 μM are marked with “+++.”)
Nc1nn2cc(F)cnc2c1C(=O)Nc1cncc(F)c1N1CCC(C(=O)N2CCN3CCC2C3)CC1 (centres unmarked) [I-G-46, N-(4-(4-(1,4-diazabicyclo[3.2.1]octane-4-carbonyl)piperidin-1-yl)-5-fluoropyridin-3-yl)-2-amino-6-fluoropyrazolo[1,5-a]pyrimidine-3-carboxamide] | +++ (Compounds with a Cisplatin sensitization value of <0.02 μM are marked with “+++.”)
CC(C)(C)NC(=O)C1CCN(c2c(F)cncc2NC(=O)c2c(N)nn3cc(F)cnc23)CC1 [I-G-19, 2-amino-N-(4-(4-(tert-butylcarbamoyl)piperidin-1-yl)-5-fluoropyridin-3-yl)-6-fluoropyrazolo[1,5-a]pyrimidine-3-carboxamide] | ++ (Compounds with a Cisplatin sensitization value >0.02 μM but <0.2 μM are marked with “++.”)
